Drawing on patent US8877819B2, “Methods for treating heat stress and related compositions” (Georgetown University, priority 2008, dated 2014), this text covers ACE activity for 1 compound.

In the assay the target is T1, angiotensin converting enzyme (ACE) (Rattus norvegicus, UniProt P47820).
T1 construct: from tissue; host or cells: rat serum
T1 sequence (P47820 36-1313): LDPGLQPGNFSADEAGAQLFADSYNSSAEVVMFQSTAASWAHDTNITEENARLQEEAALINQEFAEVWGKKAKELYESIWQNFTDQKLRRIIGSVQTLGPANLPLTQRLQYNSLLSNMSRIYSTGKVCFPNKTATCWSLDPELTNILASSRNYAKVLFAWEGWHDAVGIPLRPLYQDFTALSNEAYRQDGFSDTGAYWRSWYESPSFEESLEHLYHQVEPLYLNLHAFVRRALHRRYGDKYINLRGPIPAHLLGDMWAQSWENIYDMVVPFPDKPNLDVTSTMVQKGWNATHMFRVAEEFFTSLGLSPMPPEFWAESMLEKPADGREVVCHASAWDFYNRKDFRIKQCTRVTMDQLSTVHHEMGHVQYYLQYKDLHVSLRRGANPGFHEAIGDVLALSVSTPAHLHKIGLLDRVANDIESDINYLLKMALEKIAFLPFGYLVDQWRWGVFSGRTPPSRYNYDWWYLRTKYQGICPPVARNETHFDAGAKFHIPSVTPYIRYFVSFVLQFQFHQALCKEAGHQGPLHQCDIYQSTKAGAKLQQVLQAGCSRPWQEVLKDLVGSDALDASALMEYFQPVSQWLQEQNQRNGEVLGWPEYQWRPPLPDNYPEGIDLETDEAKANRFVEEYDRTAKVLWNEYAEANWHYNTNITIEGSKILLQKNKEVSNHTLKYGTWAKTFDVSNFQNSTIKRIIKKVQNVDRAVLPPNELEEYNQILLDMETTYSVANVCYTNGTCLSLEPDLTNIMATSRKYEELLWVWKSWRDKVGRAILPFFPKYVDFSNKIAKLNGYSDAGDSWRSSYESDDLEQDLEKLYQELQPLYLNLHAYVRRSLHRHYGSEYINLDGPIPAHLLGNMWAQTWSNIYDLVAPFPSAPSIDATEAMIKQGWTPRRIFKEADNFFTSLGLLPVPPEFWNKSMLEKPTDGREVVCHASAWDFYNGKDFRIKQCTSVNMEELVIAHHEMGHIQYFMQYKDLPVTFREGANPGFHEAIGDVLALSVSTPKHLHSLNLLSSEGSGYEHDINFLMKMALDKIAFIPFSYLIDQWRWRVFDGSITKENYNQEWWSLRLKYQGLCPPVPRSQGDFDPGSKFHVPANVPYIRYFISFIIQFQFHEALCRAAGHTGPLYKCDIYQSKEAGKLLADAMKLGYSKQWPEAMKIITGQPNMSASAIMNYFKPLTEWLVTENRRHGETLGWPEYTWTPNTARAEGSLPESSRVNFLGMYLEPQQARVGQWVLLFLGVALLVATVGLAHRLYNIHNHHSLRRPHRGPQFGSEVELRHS
Put plainly: Serum Angiotensin Converting Enzyme (ACE) activity. It counts as in vivo, Zucker Fatty Rats. Here is the method:
Serum ACE activity was measured by a commercial kit (Sigma Co. Ltd, St. Louis, Mo.). This spectrophotometric method utilizes the synthetic tripeptide substrate N-[3-(2-furyl)acryloyl]-phenylalanylglcylglcine (FAPGG). FAPGG is hydrolyzed by ACE to furylacryloylphenylalanine (FAP) and glycylglycine. Hydrolysis of FAPGG results in a decreased absorbency at 340 nm. Serum ACE activity was determined by comparing the sample reaction rate to that obtained with an appropriate ACE calibrator.

For the compound `CC1=C(/C=C/C(C)=C/C=C/C(C)=C/C=C/C=C(C)/C=C/C=C(C)/C=C/C2=C(C)C(=O)[C@@H](O)CC2(C)C)C(C)(C)C[C@H](O)C1=O` [Asta, astaxanthin], the ACE activity is, setting by setting: (Experiment 2, Hi Asta, astaxanthin 25 mg/kg in feed) 24.2 ± 1.3 units; (Experiment 2, Lo Asta, astaxanthin 5 mg/kg in feed) 27.1 ± 1.4 units.
